Assay results from patent US4735953A, “Pharmaceutical preparation for learning stimulation and memory improvement” (priority 1986, dated 1988).

Tests used:
[1] = Carcinogenic, mutagenic, teratogenic, embryotoxic effect
[2] = test system: rats persistently choosing the left side of the labyrinth; experiment: Lateralization of free behaviour in the T-shaped labyrinth; assay type: in vivo, rat; details: for Number of runs to the right, Series I / Number of runs to the right, Series II / Number of runs to the right, Series III: 20 animals
Protocol: Also studied was the change of lateralization of free behaviour of rats in the T-shaped labyrinth. In the experiment rats of both sexes with a mass of 180-230 g were used. Preliminary experiments were carried out on 120 animals, then a group of 40 animals was chosen which during 20 days selected the left corridor in the first attempt of running through the labyrinth.
The data on the capacity of the preparation according to the present invention to enhance the domination of one (left) brain hemisphere have been supported in behaviour experiments on rats where the change in lateralization of a free behaviour of rats in a T-shaped labyrinth was studied.

rats [3] = experiment: Teaching of rats in a T-shaped labyrinth with positive meal support; assay type: in vivo, rat
Text: In the second series of experiments the preparation according to the present invention was studied for the effect on teaching of rats in a T-shaped labyrinth in one compartment of which a feedbox with meal was provided. Rats deprived of meals during the day were placed into the starting compartment of the labyrinth and taught to find the feed-box in the proper compartment of the labyrinth. The response time, the number of unrealized reactions, the latent period, and the number of errors were noted.
Similar results were obtained in experiments in a T-shaped labyrinth with the use of a positive meal support.

rabbits = experiment: Chronic toxicity, rabbits; assay type: in vivo, rabbit; details: hypodermal, 2 months
Text: (§1) The chronic toxicity of the preparation was studied on three species of animals (rats, dogs, rabbits). In chronic tests on the above-mentioned animals the effect of a long-time hypodermal administration of the preparation according to the present invention on the general state and mass of animals, hemogram, cardio-vascular system, breathing central nervous system, functional state of kidneys, liver, thyroid gland was studied. […] The doses of the preparation employed in the experiments surpassed the required dose for a human being (per kilogram of bodymass) by 5-10 times.

rats [4] = experiment: Chronic toxicity, rats; assay type: in vivo, rat; details: hypodermal, 3 months
Text: as §1

patients = experiment: Tolerability and side effects in patients; assay type: in vivo, human
dogs = experiment: Chronic toxicity, dogs; assay type: in vivo, dog; details: hypodermal, 6 months
Text: as §1

mice = experiment: Acute toxicity, mice; assay type: in vivo, mouse; details: single intraperitoneal
Protocol: The preparation according to the present invention was also tested for acute and chronic toxicity.

[5] = test system: learning ability of mice in a shuttle chamber; experiment: Learning ability of mice in a shuttle chamber; assay type: in vivo, mouse
Solubility = assay type: physicochemical
[6] = Allergenic activity tests
Protocol: Allergenic activity tests were also carried out for the preparation according to the present invention.

[7] = mice, hypodermally 1 mg/kg, 1st day
[8] = mice, hypodermally 1 mg/kg, 12 day (retention)
[9] = mice, hypodermally 3 mg/kg, 1st day
[10] = mice, hypodermally 3 mg/kg, 12 day (retention)
[11] = mice, hypodermally 10 mg/kg, 1st day
[12] = mice, hypodermally 10 mg/kg, 12 day (retention)
[13] = mice, per os 0.3 mg/kg, 1st day
[14] = mice, per os 0.3 mg/kg, 12 day (retention)
[15] = mice, per os 1 mg/kg, 12 day (retention)
[16] = mice, per os 3 mg/kg, 12 day (retention)

Cl.Nc1c2c(nc3c1CCC3)CCCC2.O [preparation of the invention, 9-amino-2,3,5,6,7,8-hexahydro-1H-cyclopenta(b)quinoline monohydrate hydrochloride]
carcinogenic effect [1]: neither provides a carcinogenic, mutagenic, teratogenic or embryotoxic effect | embryotoxic effect [1]: neither provides a carcinogenic, mutagenic, teratogenic or embryotoxic effect | mutagenic effect [1]: neither provides a carcinogenic, mutagenic, teratogenic or embryotoxic effect | teratogenic effect [1]: neither provides a carcinogenic, mutagenic, teratogenic or embryotoxic effect | choice of the right side of the labyrinth (in words) [2]: statistically markedly increased | Number of runs to the right, Series I ([2]; hypodermally 5 mg/kg): 10 | Number of runs to the right, Series II ([2]; hypodermally 5 mg/kg): 12 | Number of runs to the right, Series III ([2]; hypodermally 5 mg/kg): 14 | Number of runs to the right, Series I ([2]; hypodermally 10 mg/kg): 9 | Number of runs to the right, Series II ([2]; hypodermally 10 mg/kg): 14 | Number of runs to the right, Series III ([2]; hypodermally 10 mg/kg): 15 | number of response failures as compared to the initial level on the first day of teaching (rats [3]; rats, 5 mg/kg, by the fourth day of teaching, control 60-70%): 40% | number of response failures (in words) (rats [3]; rats, 1, 5 and 10 mg/kg): reduced number of response failures | chronic toxicity (rabbits): no toxic effect | chronic toxicity (rats [4]): no toxic effect | side effects, rare cases (patients; eliminated by lowering dose or temporary suspension): reduction or elevation of arterial pressure and bradycardia | tolerability (patients; patients): well-bearable by patients | side effects (patients; signs of stimulation of m-cholinergic systems): nausea, diarrhea, less frequently--vomition | chronic toxicity (dogs): no toxic effect | LD50 (mice): 44 mg/kg | efficiency versus comparison preparations (in words) ([5]; mice): more efficient than pyracetam, 4-aminopyridine, physostigmine and calcium homopantothenate | retention of the acquired knowledge (in words) ([5]; mice, 1, 3 and 10 mg/kg, after 24 hours): improves retention of the acquired knowledge | learning process (in words) ([5]; mice, 1, 3 and 10 mg/kg, first day of teaching): facilitates the learning process | % of avoidance reactions, group I [5, 7]: 22% | % of avoidance reactions, group II [5, 7]: 40% | % of avoidance reactions, group III [5, 7]: 52% | % of avoidance reactions, group IV [5, 7]: 60% | % of avoidance reactions, group V [5, 7]: 70% | % of avoidance reactions, group VI [5, 7]: 74% | % of avoidance reactions, group I [5, 8]: 70% | % of avoidance reactions, group II [5, 8]: 88% | % of avoidance reactions, group III [5, 8]: 90% | % of avoidance reactions, group IV [5, 8]: 90% | % of avoidance reactions, group V [5, 8]: 91% | % of avoidance reactions, group VI [5, 8]: 90% | % of avoidance reactions, group I [5, 9]: 32% | % of avoidance reactions, group II [5, 9]: 43% | % of avoidance reactions, group III [5, 9]: 50% | % of avoidance reactions, group IV [5, 9]: 61% | % of avoidance reactions, group V [5, 9]: 67% | % of avoidance reactions, group VI [5, 9]: 65% | % of avoidance reactions, group I [5, 10]: 66% | % of avoidance reactions, group II [5, 10]: 90% | % of avoidance reactions, group III [5, 10]: 88% | % of avoidance reactions, group IV [5, 10]: 87% | % of avoidance reactions, group V [5, 10]: 86% | % of avoidance reactions, group VI [5, 10]: 86% | % of avoidance reactions, group I [5, 11]: 28% | % of avoidance reactions, group II [5, 11]: 20% | % of avoidance reactions, group III [5, 11]: 25% | % of avoidance reactions, group IV [5, 11]: 40% | % of avoidance reactions, group V [5, 11]: 44% | % of avoidance reactions, group VI [5, 11]: 46% | % of avoidance reactions, group I [5, 12]: 61% | % of avoidance reactions, group II [5, 12]: 75% | % of avoidance reactions, group III [5, 12]: 78% | % of avoidance reactions, group IV [5, 12]: 77% | % of avoidance reactions, group V [5, 12]: 76% | % of avoidance reactions, group VI [5, 12]: 81% | % of avoidance reactions, group I [5, 13]: 27% | % of avoidance reactions, group II [5, 13]: 38% | % of avoidance reactions, group III [5, 13]: 59% | % of avoidance reactions, group IV [5, 13]: 65% | % of avoidance reactions, group V [5, 13]: 68% | % of avoidance reactions, group VI [5, 13]: 72% | % of avoidance reactions, group I [5, 14]: 79% | % of avoidance reactions, group II [5, 14]: 84% | % of avoidance reactions, group III [5, 14]: 82% | % of avoidance reactions, group IV [5, 14]: 83% | % of avoidance reactions, group V [5, 14]: 80% | % of avoidance reactions, group VI [5, 14]: 82% | % of avoidance reactions, group I ([5]; mice, per os 1 mg/kg, 1st day): 27% | % of avoidance reactions, group II ([5]; mice, per os 1 mg/kg, 1st day): 43% | % of avoidance reactions, group III ([5]; mice, per os 1 mg/kg, 1st day): 70% | % of avoidance reactions, group IV ([5]; mice, per os 1 mg/kg, 1st day): 80% | % of avoidance reactions, group V ([5]; mice, per os 1 mg/kg, 1st day): 80% | % of avoidance reactions, group VI ([5]; mice, per os 1 mg/kg, 1st day): 82% | % of avoidance reactions, group I [5, 15]: 80% | % of avoidance reactions, group II [5, 15]: 90% | % of avoidance reactions, group III [5, 15]: 88% | % of avoidance reactions, group IV [5, 15]: 87% | % of avoidance reactions, group V [5, 15]: 86% | % of avoidance reactions, group VI [5, 15]: 90% | % of avoidance reactions, group I ([5]; mice, per os 3 mg/kg, 1st day): 18% | % of avoidance reactions, group II ([5]; mice, per os 3 mg/kg, 1st day): 27% | % of avoidance reactions, group III ([5]; mice, per os 3 mg/kg, 1st day): 35% | % of avoidance reactions, group IV ([5]; mice, per os 3 mg/kg, 1st day): 44% | % of avoidance reactions, group V ([5]; mice, per os 3 mg/kg, 1st day): 51% | % of avoidance reactions, group VI ([5]; mice, per os 3 mg/kg, 1st day): 50% | % of avoidance reactions, group I [5, 16]: 51% | % of avoidance reactions, group II [5, 16]: 76% | % of avoidance reactions, group III [5, 16]: 75% | % of avoidance reactions, group IV [5, 16]: 77% | % of avoidance reactions, group V [5, 16]: 79% | % of avoidance reactions, group VI [5, 16]: 80% | memory stimulation, per os as compared to subcutaneous administration ([5]; mice, per os vs subcutaneous): the same or even better results of memory stimulation | solubility in 95% ethanol (Solubility; 95% ethanol): less soluble in a 95% ethanol | solubility in acetone (Solubility; acetone): substantially insoluble | solubility in chloroform (Solubility; chloroform): substantially insoluble | solubility in diluted solutions of acids (Solubility; diluted solutions of acids): readily soluble in diluted solutions of acids | solubility in ether (Solubility; ether): substantially insoluble | solubility in water (Solubility; water): well soluble in water | allergenic effect [6]: no allergenic effect
